A word on the mortality: it is the percentage killed.

Common to all, as to type: in vivo
In assay [1] the test system is Yellow Fever Mosquito (Aedes aegypti, AEDSAE) larvae. Briefly: Bioassay on Yellow Fever Mosquito (YFM), 96-well plate larval assay. To be noted: Table ABC Biological Results. As to the method:
Certain molecules disclosed in this document were tested against YFM using procedures described in the following paragraph. In the reporting of the results, the “GPA & YFM Rating Table” was used (See Table Section).
Master plates containing 400 μg of a molecule dissolved in 100 μL of dimethyl sulfoxide (DMSO) (equivalent to a 4000 ppm solution) are used. A master plate of assembled molecules contains 15 μL per well. To this plate, 135 μL of a 90:10 water:acetone mixture is added to each well. A robot (Biomek® NXP Laboratory Automation Workstation) is programmed to dispense 15 μL aspirations from the master plate into an empty 96-well shallow plate (“daughter” plate). There are 6 reps (“daughter” plates) created per master. The created daughter plates are then immediately infested with YFM larvae.
The day before plates are to be treated, mosquito eggs are placed in Millipore water containing liver powder to begin hatching (4 g. into 400 mL). After the daughter plates are created using the robot, they are infested with 220 μL of the liver powder/larval mosquito mixture (about 1 day-old larvae). After plates are infested with mosquito larvae, a non-evaporative lid is used to cover the plate to reduce drying. Plates are held at room temperature for 3 days prior to grading. After 3 days, each well is observed and scored based on mortality. The results are indicated in the table entitled “Table ABC: Biological Results” (See Table Section).

In assay [2] the test system is Beet Armyworm (Spodoptera exigua, LAPHEG) second instar larvae. Briefly: Bioassay on Beet Armyworm (BAW), 128-well diet tray assay. To be noted: for pest or weed control at 50 µg/cm2: Beet Armyworm, Table ABC Biological Results, read-out: BAW rating; for mortality at 0.05 µg/cm2: 0.05 μg/cm^2 on artificial diet; for mortality at 0.05 µg/cm2 / mortality at 0.5 µg/cm2 / mortality at 5 µg/cm2: read-out: Percent control (or mortality) BAW; for mortality at 0.5 µg/cm2: 0.5 μg/cm^2 on artificial diet; for mortality at 5 µg/cm2: 5 μg/cm^2 on artificial diet. The procedure: (§1) Certain molecules disclosed in this document were tested against BAW, CEW, and CL using procedures described in the following examples. In the reporting of the results, the “BAW, CEW, & CL Rating Table” was used (See Table Section).
Bioassays on BAW were conducted using a 128-well diet tray assay. one to five second instar BAW larvae were placed in each well (3 mL) of the diet tray that had been previously filled with 1 mL of artificial diet to which 50 μg/cm^2 of the test molecule (dissolved in 50 μL of 90:10 acetone-water mixture) had been applied (to each of eight wells) and then allowed to dry. Trays were covered with a clear self-adhesive cover and held at 25° C., 14:10 light-dark for five to seven days. Percent mortality was recorded for the larvae in each well; activity in the eight wells was then averaged. The results are indicated in the table entitled “Table ABC: Biological Results” (See Table Section).
(§2) Bioassays on BAW and CL were conducted according to the procedures outlined in Example A: Bioassays on Beet Armyworm (“BAW”) and Cabbage Looper (“CL”) using the indicated concentrations.

The subject of assay [3] is Cabbage Looper (Trichoplusia ni, TRIPNI) second instar larvae. Briefly: Bioassay on Cabbage Looper (CL), 128-well diet tray assay. As to conditions: for pest or weed control at 50 µg/cm2: Cabbage Looper, Table ABC Biological Results, read-out: CL rating; for mortality at 0.05 µg/cm2: 0.05 μg/cm^2 on artificial diet; for mortality at 0.05 µg/cm2 / mortality at 0.5 µg/cm2 / mortality at 5 µg/cm2: read-out: Percent control (or mortality) CL; for mortality at 0.5 µg/cm2: 0.5 μg/cm^2 on artificial diet; for mortality at 5 µg/cm2: 5 μg/cm^2 on artificial diet. As to the method:
as §1
Bioassays on CL were conducted using a 128-well diet tray assay. one to five second instar CL larvae were placed in each well (3 mL) of the diet tray that had been previously filled with 1 mL of artificial diet to which 50 μg/cm^2 of the test molecule (dissolved in 50 μL of 90:10 acetone-water mixture) had been applied (to each of eight wells) and then allowed to dry. Trays were covered with a clear self-adhesive cover and held at 25° C., 14:10 light-dark for five to seven days. Percent mortality was recorded for the larvae in each well; activity in the eight wells was then averaged. The results are indicated in the table entitled “Table ABC: Biological Results” (See Table Section).
as §2

For the compound `C[C@H](NC(=O)CCC(F)(F)F)NC(=O)c1ccc(/C(F)=C/C(c2ccc(F)c(Cl)c2)C(F)(F)F)cc1C(F)(F)F` (stereo partly drawn) [PF3, 4-((Z)-3-(3-Chloro-4-fluorophenyl)-1,4,4,4-tetrafluorobut-1-en-1-yl)-N—((R)-1-(4,4,4-trifluorobutanamido)ethyl)-2-(trifluoromethyl)benzamide], the YFM rating result in assay [1] was “B (More than 0-Less than 80)”. Also, the pest or weed control at 50 µg/cm2 in assay [2] and in assay [3] was 50 to 100% throughout.
For the compound `C[C@H](NC(=O)CC(F)(F)F)NC(=O)c1ccc(/C(F)=C/C(c2ccc(Cl)c(Cl)c2)C(F)(F)F)cc1C(F)(F)F` (stereo partly drawn) [F13, 4-((Z)-3-(3,4-Dichlorophenyl)-1,4,4,4-tetrafluorobut-1-en-1-yl)-2-(trifluoromethyl)-N—((R)-1-(3,3,3-trifluoropropanamido)ethyl)benzamide], the YFM rating result in assay [1] is recorded as “A (80-100)”. In addition, the pest or weed control at 50 µg/cm2 in assay [2] and in assay [3] was 50 to 100% throughout.
For the compound `C=Cc1c(Cl)cc(C(/C=C(\F)c2ccc(C(=O)N[C@H](C)NC(=O)CCC(F)(F)F)c(C(F)(F)F)c2)C(F)(F)F)cc1Cl` (stereo partly drawn) [F19, 4-((Z)-3-(3,5-Dichloro-4-vinylphenyl)-1,4,4,4-tetrafluorobut-1-en-1-yl)-N—((R)-1-(4,4,4-trifluorobutanamido)ethyl)-2-(trifluoromethyl)benzamide], the YFM rating result in assay [1] is “A (80-100)”. The pest or weed control at 50 µg/cm2 in assay [2] and in assay [3] was 50 to 100% each time.
Take `Cc1cc(/C(F)=C/C(c2cc(Cl)c(Cl)c(Cl)c2)C(F)(F)F)ccc1C(=O)N[C@H](C)NC(=O)CCC(F)(F)F` (stereo partly drawn) [F2, 2-Methyl-4-((Z)-1,4,4,4-tetrafluoro-3-(3,4,5-trichlorophenyl)but-1-en-1-yl)-N—((R)-1-(4,4,4-trifluorobutanamido)ethyl)benzamide]: in assay [2], the mortality at 0.05 µg/cm2 is 100%, the mortality at 0.5 µg/cm2 was 100%, the mortality at 5 µg/cm2 worked out at 100% and the pest or weed control at 50 µg/cm2 lay within 50 to 100%. Also, in assay [3], the mortality at 0.05 µg/cm2 turned out to be 100%, the mortality at 0.5 µg/cm2 is 100%, the mortality at 5 µg/cm2 was 100% and the pest or weed control at 50 µg/cm2 lay within 50 to 100%.
On to `C[C@H](NC(=O)NC1CC1)NC(=O)c1ccc(/C(F)=C/C(c2cc(Cl)c(Cl)c(Cl)c2)C(F)(F)F)cc1C(F)(F)F` (stereo partly drawn) [F29, N—((S)-1-(3-cyclopropylureido)ethyl)-4-((Z)-1,4,4,4-tetrafluoro-3-(3,4,5-trichlorophenyl)but-1-en-1-yl)-2-(trifluoromethyl)benzamide], for which the pest or weed control at 50 µg/cm2 in assay [2] and in assay [3] was 50 to 100% throughout.
In the case of `CCC(F)(F)C(/C=C(\F)c1ccc(C(=O)N[C@H](C)NC(=O)CCC(F)(F)F)c(C(F)(F)F)c1)c1cc(Cl)c(Cl)c(Cl)c1` (stereo partly drawn) [F21, 4-((Z)-1,4,4-Trifluoro-3-(3,4,5-trichlorophenyl)hex-1-en-1-yl)-N—((R)-1-(4,4,4-trifluorobutanamido)ethyl)-2-(trifluoromethyl)benzamide], the pest or weed control at 50 µg/cm2 in assay [2] and in assay [3] was 50 to 100% throughout.
For the compound `C[C@H](NC(=O)CCC(F)(F)F)NC(=O)c1ccc(/C(F)=C/C(c2cc(Cl)c(Cl)c(Cl)c2)C(F)(F)F)cc1C(F)(F)F` (stereo partly drawn) [F1, 4-((Z)-1,4,4,4-tetrafluoro-3-(3,4,5-trichlorophenyl)but-1-en-1-yl)-N—((R)-1-(4,4,4-trifluorobutanamido)ethyl)-2-(trifluoromethyl)benzamide], in assay [2], the mortality at 0.05 µg/cm2 stood at 100%, the mortality at 0.5 µg/cm2 was 100%, the mortality at 5 µg/cm2 turned out to be 100% and the pest or weed control at 50 µg/cm2 was 50 to 100%. Moreover, in assay [3], the mortality at 0.05 µg/cm2 is 100%, the mortality at 0.5 µg/cm2 is 100%, the mortality at 5 µg/cm2 came out at 100% and the pest or weed control at 50 µg/cm2 was 50 to 100%.
As for `C[C@H](NC(=O)CCC(F)(F)F)NC(=O)c1ccc(/C(F)=C/C(c2cc(Cl)c(Cl)c(Cl)c2)C(F)(F)F)cc1` (stereo partly drawn) [FC2, 4-((Z)-1,4,4,4-Tetrafluoro-3-(3,4,5-trichlorophenyl)but-1-en-1-yl)-N—((R)-1-(4,4,4-trifluorobutanamido)ethyl)benzamide, reference compound], in assay [2], the mortality at 0.05 µg/cm2 stood at 0%, the mortality at 0.5 µg/cm2 was 0% and the mortality at 5 µg/cm2 is 100%. Besides, in assay [3], the mortality at 0.05 µg/cm2 worked out at 0%, the mortality at 0.5 µg/cm2 was determined as 6% and the mortality at 5 µg/cm2 came out at 100%.
Take `CCC(F)(F)C(/C=C(\F)c1ccc(C(=O)N[C@H](C)NC(=O)CC(F)(F)F)c(C(F)(F)F)c1)c1cc(Cl)c(Cl)c(Cl)c1` (stereo partly drawn) [F20, 4-((Z)-1,4,4-Trifluoro-3-(3,4,5-trichlorophenyl)hex-1-en-1-yl)-2-(trifluoromethyl)-N—((R)-1-(3,3,3-trifluoropropanamido)ethyl)benzamide]: the pest or weed control at 50 µg/cm2 in assay [2] and in assay [3] was 50 to 100% throughout.
In the case of `C[C@H](NC(=O)CC(F)(F)F)NC(=O)c1ccc(/C(F)=C/C(c2cc(Cl)c(Cl)c(Cl)c2)C(F)(F)F)cc1` (stereo partly drawn) [FC1, 4-((Z)-1,4,4,4-Tetrafluoro-3-(3,4,5-trichlorophenyl)but-1-en-1-yl)-N—((R)-1-(3,3,3-trifluoropropanamido)ethyl)benzamide, reference compound], in assay [2], the mortality at 0.05 µg/cm2 was determined as 0%, the mortality at 0.5 µg/cm2 is 0% and the mortality at 5 µg/cm2 came out at 7%. For the same compound, in assay [3], the mortality at 0.05 µg/cm2 came out at 0%, the mortality at 0.5 µg/cm2 is 0% and the mortality at 5 µg/cm2 was 100%.
On to `Cc1cc(/C(F)=C/C(c2cc(Cl)c(Cl)c(Cl)c2)C(F)(F)F)ccc1C(=O)N[C@H](C)NC(=O)CC(F)(F)F` (stereo partly drawn) [F33, 2-Methyl-4-((Z)-1,4,4,4-tetrafluoro-3-(3,4,5-trichlorophenyl)but-1-en-1-yl)-N—((R)-1-(3,3,3-trifluoropropanamido)ethyl)benzamide], for which, in assay [2], the mortality at 0.05 µg/cm2 came to 88%, the mortality at 0.5 µg/cm2 was 100%, the mortality at 5 µg/cm2 was determined as 100% and the pest or weed control at 50 µg/cm2 is 50 to 100%. In addition, in assay [3], the mortality at 0.05 µg/cm2 amounted to 100%, the mortality at 0.5 µg/cm2 stood at 100%, the mortality at 5 µg/cm2 worked out at 100% and the pest or weed control at 50 µg/cm2 is 50 to 100%.
On to `C[C@H](NC(=O)CC(F)(F)F)NC(=O)c1ccc(/C(F)=C/C(c2ccc(Br)c(Cl)c2)C(F)(F)F)cc1C(F)(F)F` (stereo partly drawn) [PF8, 4-((Z)-3-(4-Bromo-3-chlorophenyl)-1,4,4,4-tetrafluorobut-1-en-1-yl)-2-(trifluoromethyl)-N—((R)-1-(3,3,3-trifluoropropanamido)ethyl)benzamide], for which the pest or weed control at 50 µg/cm2 in assay [2] and in assay [3] was 50 to 100% throughout.
As to `CCC(=O)N[C@@H](C)NC(=O)c1ccc(/C(F)=C/C(c2cc(Cl)c(Cl)c(Cl)c2)C(F)(F)F)cc1C(F)(F)F` (stereo partly drawn) [F34, N—((R)-1-propionamidoethyl)-4-((Z)-1,4,4,4-tetrafluoro-3-(3,4,5-trichlorophenyl)but-1-en-1-yl)-2-(trifluoromethyl)benzamide], the pest or weed control at 50 µg/cm2 in assay [2] and in assay [3] was 50 to 100% each time.
In the case of `C[C@H](NC(=O)CCC(F)(F)F)NC(=O)c1ccc(/C(F)=C/C(c2cc(Cl)c(Cl)c(Cl)c2)C(C)(F)F)cc1C(F)(F)F` (stereo partly drawn) [F10, 4-((Z)-1,4,4-Trifluoro-3-(3,4,5-trichlorophenyl)pent-1-en-1-yl)-N—((R)-1-(4,4,4-trifluorobutanamido)ethyl)-2-(trifluoromethyl)benzamide], the pest or weed control at 50 µg/cm2 in assay [2] and in assay [3] was 50 to 100% throughout.

These data come from patent US9924716B2, “Molecules having pesticidal utility, and intermediates, compositions, and processes, related thereto” (Dow AgroSciences LLC, priority 2016, dated 2018).
